# Experiments:
# [1] = target: T1, recombinant human 5-HT2A receptor (Homo sapiens, UniProt P28223); test: Radioligand binding, [3H]Ketanserin competition in CHO-K1 cell membranes; details: [3H]Ketanserin displacement, 32° C., pH 7.4, read-out: pKi for the 5-HT2A receptor (converted)
# T1 construct: expressed in transfected cells
# Method: The binding activity of compounds of this invention in vitro was determined as follows. Duplicate determinations of 5-HT6 ligand affinity were made by competing for binding of [^3H]LSD in cell membranes derived from HEK293 cells stably expressing recombinant human 5-HT6 receptor. Duplicate determinations of 5-HT2A ligand affinity were made by competing for binding of [^3H]Ketanserin (3-(2-(4-(4-fluorobenzoyl)piperidinol)ethyl)-2,4(1H,3H)-quinazolinedione) in cell membranes derived from CHO—K1 cells stably expressing recombinant human 5-HT2A receptor. Membranes were prepared from HEK 293 cell lines by the method described by Monsma et al., Molecular Pharmacology, Vol. 43 pp. 320-327 (1993), and from CHO—K1 cell lines as described by Bonhaus et al., Br J Pharmacol. June;1 15(4):622-8 (1995).
# For estimation of affinity at the 5-HT6 receptor, all determinations were made in assay buffer containing 50 mM Tris-HCl, 10 mM MgSO4, 0.5 mM EDTA, 1 mM ascorbic acid, pH 7.4 at 37° C., in a 250 microliter reaction volume. […]
# Assay tubes containing [^3H] […] LSD or [^3H]Ketanserin were determined as radioactive counts per minute using Packard TopCount.
# Displacement of [^3H]LSD or [^3H]Ketanserin from the binding sites was quantified by fitting concentration-binding data to a 4-parameter logistic equation: […]
# T1 sequence (P28223 whole entry): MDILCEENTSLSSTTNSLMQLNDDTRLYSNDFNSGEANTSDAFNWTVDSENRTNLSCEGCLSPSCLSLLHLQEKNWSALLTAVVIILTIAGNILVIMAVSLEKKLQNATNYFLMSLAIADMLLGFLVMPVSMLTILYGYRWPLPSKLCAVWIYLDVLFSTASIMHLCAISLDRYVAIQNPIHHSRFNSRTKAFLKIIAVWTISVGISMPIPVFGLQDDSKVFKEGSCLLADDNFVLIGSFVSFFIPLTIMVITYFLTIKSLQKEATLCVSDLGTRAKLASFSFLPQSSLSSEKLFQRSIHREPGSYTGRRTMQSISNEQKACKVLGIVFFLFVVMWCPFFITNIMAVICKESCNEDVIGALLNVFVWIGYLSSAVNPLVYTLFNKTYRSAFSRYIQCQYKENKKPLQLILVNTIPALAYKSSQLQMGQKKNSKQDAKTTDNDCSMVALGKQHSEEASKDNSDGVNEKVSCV
compound,measurement,setting,value
"CNC[C@H]1COc2ccc(S(=O)(=O)c3cccc(F)c3)cc2O1 [[7-(3-Fluoro-benzenesulfonyl)-2,3-dihydro-benzo[1,4]dioxin-2-(S)-ylmethyl]-methyl-amine]",Ki,[1],~18.2 nM
same,melting point,,245.8 to 246.4 °C
